Measured values published in publication PMC11013998, “Preparation of Peptoid Antifreeze Agents and Their Structure–Property Relationship” (Polymers, 2024).

Test system: Mouse fibroblasts (L929)
Test: Cytotoxicity test, Cell Counting Kit-8 (CCK8)
Assay type: cell-based
Conditions: L929 cells, 10 mg/mL in culture medium, 24 h, CCK-8, OD at 450 nm; non-cytotoxic if higher than 75%; tested at least three times
Description: Cytotoxicity testing is a crucial strategy used to test the safety of biological materials. This experiment employed a low-speed centrifuge (SC-3610, Anhui Zhongke Zhongjia scientific Instrument Co., Ltd., Hefei, China), a cell incubator (CCL-170B-8, ESCO, Kuala Lumpur, Singapore) and a multifunctional microplate detector (Synergy H1, Bio-Tek, Winooski, VT, USA). In this test, the cytotoxicity of peptoid oligomers was detected using Cell Counting Kit-8 (CCK8, Finn Biological Co., Ltd., Wuhan, China). Mouse fibroblasts (L929) were cultured and subcultured to ensure that they met the experimental requirements. The old culture medium was removed from the cell dish, and 1 mL trypsin was added to digest the cells. A total of 2 mL of the new culture medium was added to the cell culture dish, and the cells were centrifuged to the bottom of the centrifuge tube. The culture medium was removed. An appropriate amount of new culture medium was added, and the centrifuge tube was shaken gently to disperse the cells evenly. […] Finally, the Optical Density (OD) at 450 nm was measured using a BioTek multifunctional microplate detector. The relative survival rate (σ) could be calculated using the following formula:(1) σ=OD1−OD0/OD2−OD0×100% where OD1 was the average OD of the experimental group, OD2 was the average OD of the negative control group, and OD0 was the average OD of the blank control group. […]

`C[S+](C)[O-]` [DMSO, dimethyl sulfoxide] gave a relative cell viability of 61.9%.
